Laboratory results published in the C3SDB collision cross section collection.
Several values for one entry are separate records, joined by “and”; a condition that tells them apart may be missing. Identical values can stand only once.

Conditions: instrument: DT, single field, calibrated with ESI Low Concentration Tuning Mix (Agilent)

| SMILES | collision cross section (N2) ([M-H]-) | collision cross section (N2) ([M+Na]+) | collision cross section (N2) ([M+H]+) | also measured |
| --- | --- | --- | --- | --- |
| O=C(O)[C@H](O)CO [GLYCERATE] | 112.6 Å² |  |  |  |
| N[C@@H](Cc1ccccc1)C(=O)O [PHENYLALANINE] | 139.4 Å² | 138.3 Å² |  |  |
| OCCc1c[nH]c2ccccc12 [INDOLE-3-ETHANOL] | 132.6 Å² |  | 133.6 Å² |  |
| N[C@@H](Cc1cc(I)c(Oc2ccc(O)cc2)c(I)c1)C(=O)O [3,5-DIIODO-L-THYRONINE] | 188.2 Å² | 189.4 Å² | 198.5 Å² |  |
| NCCC(=O)N[C@@H](Cc1cnc[nH]1)C(=O)O [CARNOSINE] | 152.1 Å² | 154.7 Å² | 150.8 Å² |  |
| O=C(O)CCCCCCCC(=O)O [AZELATE] |  | 148.4 Å² |  | collision cross section (N2) ([M+Na-2H]-): 141.9 Å² |
| CCOC(=O)Cc1c[nH]c2ccccc12 [ETHYL 3-INDOLEACETATE] | 145.6 Å² | 153.6 Å² | 145.2 Å² |  |
| CC(=O)N[C@@H]1[C@@H](O)[C@H](O)[C@@H](CO)O[C@H]1O [N-ACETYLGLUCOSAMINE] | 152.5 Å² | 150.7 Å² and 157.8 Å² |  |  |
| Nc1ccn([C@H]2C[C@H](O)[C@@H](CO)O2)c(=O)n1 [DEOXYCYTIDINE] | 148.7 Å² | 155.2 Å² |  | collision cross section (N2) ([M+K]+): 158.5 Å² |
| O=C(O)CCCCCCCCCO [10-HYDROXYDECANOATE] | 144.3 Å² | 151 Å² |  |  |
| C[C@H](O)[C@H](N)C(=O)O [ALLOTHREONINE] | 119.3 Å² |  |  |  |
| OC[C@H]1O[C@@H](O[C@H]2[C@H](O)[C@@H](O)[C@H](O)O[C@@H]2CO)[C@H](O)[C@@H](O)[C@@H]1O [CELLOBIOSE] | 179.7 Å² | 178.7 Å² |  | collision cross section (N2) ([M+K]+): 180.9 Å² |
| CC(=O)N[C@@H]1C(O)O[C@H](CO)[C@@H](O)[C@@H]1O (stereo not given in full) [N-ACETYLMANNOSAMINE] |  | 150.2 Å² |  |  |
| CC(C)=CCC/C(C)=C/COP(=O)(O)OP(=O)(O)O [GERANYL-PP] | 167.2 Å² |  |  | collision cross section (N2) ([M+Na-2H]-): 173.8 Å² |
| O=C(O)C1=C[C@@H](O)[C@@H](O)[C@H](O)C1 [SHIKIMATE] | 136.3 Å² |  |  |  |
| CC(=O)N[C@@H]1[C@@H](O)[C@@H](O)[C@@H](CO)O[C@@H]1O [N-ACETYLGALACTOSAMINE] |  | 150.3 Å² |  | collision cross section (N2) ([M+K]+): 151.4 Å² |
| N[C@@H](Cc1ccc(O)cc1)C(=O)O [TYROSINE] | 143.8 Å² | 143.6 Å² | 145.8 Å² |  |
| O=C([O-])CCc1ccccc1O [3-(2-HYDROXYPHENYL)PROPANOATE] | 133.2 Å² |  |  |  |
| NCCP(=O)(O)O [(2-AMINOETHYL)PHOSPHONATE] | 120 Å² | 136.5 Å² | 129 Å² |  |

| SMILES | collision cross section (N2) ([M-H]-) | collision cross section (N2) ([M+Na]+) | collision cross section (N2) ([M+H]+) | also measured |
| --- | --- | --- | --- | --- |
| CC1=C(/C=C/C(C)=C/C=C/C(C)=C/C(=O)O)C(C)(C)CCC1 [RETINOATE] |  | 181.9 Å² |  |  |
| NC(Cc1c[nH]c2ccc(O)cc12)C(=O)O (stereo not given) [5-HYDROXYTRYPTOPHAN] | 146.9 Å² and 151.5 Å² | 152.6 Å² | 154.5 Å² | collision cross section (N2) ([M+Na-2H]-): 149.7 Å² |
| O=C(O)C(CO)OP(=O)(O)O (stereo not given) [2-PHOSPHOGLYCERATE] | 124.2 Å² | 141.9 Å² | 134.3 Å² | collision cross section (N2) ([M+Na-2H]-): 133.1 Å² |
| O=C([O-])c1cc(=O)[nH]c(=O)[nH]1 [OROTATE] | 121.5 Å² |  |  |  |
| C[n+]1cccc(C(N)=O)c1 [1-METHYLNICOTINAMIDE] |  |  |  | collision cross section (N2) ([M+]+): 126.2 Å² |
| O=C(O)C(=O)Cc1c[nH]c2ccccc12 [INDOLE-3-PYRUVATE] | 137.6 Å² |  |  |  |
| Cc1ncc(CO)c(CN)c1O [PYRIDOXAMINE] | 133.9 Å² | 144.1 Å² | 133.7 Å² |  |
| O=P(O)(O)OC[C@H]1OC(O)[C@H](O)[C@@H]1O (stereo partly drawn) [D-RIBOSE 5-PHOSPHATE] | 139.4 Å² | 150.5 Å² |  |  |
| CC(CCC(=O)O)C(=O)O (stereo not given) [2-METHYLGLUTARATE] | 126 Å² | 137.4 Å² |  | collision cross section (N2) ([M+Na-2H]-): 132.6 Å² |
| O=C(O)CCCC(=O)O [GLUTARATE] | 121.3 Å² and 121.4 Å² |  |  | collision cross section (N2) ([M+Na-2H]-): 129 Å² and 129.1 Å² |
| CCCCCCCCCCCCCC(=O)OCC(COC(=O)CCCCCCCCCCCCC)OC(=O)CCCCCCCCCCCCC [GLYCERYL TRIMYRISTATE] |  | 291.4 Å² |  |  |
| CC[C@H](NC(=O)CC[C@H]([NH3+])C(=O)[O-])C(=O)NCC(=O)[O-] [OPHTHALMATE] | 160.9 Å² | 163.4 Å² | 164.5 Å² | collision cross section (N2) ([M+Na-2H]-): 163.7 Å² |
| COC(=O)Cc1c[nH]c2ccccc12 [INDOLE-3-METHYL ACETATE] | 141.1 Å² | 147.2 Å² | 138.7 Å² |  |
| O=C(O)[C@H]1O[C@H](OP(=O)(O)OP(=O)(O)OC[C@H]2O[C@@H](n3ccc(=O)[nH]c3=O)[C@H](O)[C@@H]2O)[C@H](O)[C@@H](O)[C@@H]1O [URIDINE DIPHOSPHATE GLUCURONIC ACID] | 211.9 Å² | 211 Å² |  | collision cross section (N2) ([M+Na-2H]-): 204.6 Å² |
| Nc1ncnc2c1ncn2C1OC(COP(=O)(O)OP(=O)(O)OCC2OC(O)C(O)C2O)C(O)C1O (stereo not given) [ADENOSINE DIPHOSPHATE RIBOSE] | 202.3 Å² and 207.2 Å² | 217.5 Å² | 212.4 Å² | collision cross section (N2) ([M+H2O-H]-): 204.5 Å²; collision cross section (N2) ([M+Na-2H]-): 211.5 Å² |
| O=C(O)Cc1ccc(O)cc1 [P-HYDROXYPHENYLACETATE] | 128.6 Å² |  |  |  |
| CC(=O)NC(Cc1c[nH]c2ccccc12)C(=O)O (stereo not given) [N-ACETYLTRYPTOPHAN] | 158.3 Å² | 158.5 Å² | 153.8 Å² |  |
| O=C(O)Cc1cc(O)ccc1O [HOMOGENTISATE] | 132.4 Å² |  |  |  |
| CC(C)=CCNc1ncnc2nc[nH]c12 [N6-(DELTA2-ISOPENTENYL)-ADENINE] | 150.5 Å² |  | 145.5 Å² |  |

| SMILES | collision cross section (N2) ([M-H]-) | collision cross section (N2) ([M+Na]+) | collision cross section (N2) ([M+H]+) | also measured |
| --- | --- | --- | --- | --- |
| CC(=O)NCCc1c[nH]c2ccc(O)cc12 [N-ACETYLSEROTONIN] | 150.5 Å² | 153.5 Å² | 149.6 Å² |  |
| O=C(O)[C@H]1OC(O)[C@H](O)[C@@H](O)[C@@H]1O (stereo not given in full) [GLUCURONATE] | 131.7 Å² | 150.2 Å² |  |  |
| Nc1ncnc2c1ncn2[C@@H]1O[C@H](COP(=O)(O)O)[C@@H](OP(=O)(O)O)[C@H]1O [ADENOSINE 3',5'-DIPHOSPHATE] | 184.3 Å² | 188 Å² | 183.3 Å² | collision cross section (N2) ([M+Na-2H]-): 188.5 Å² |
| NC(=O)NCCC[C@H](N)C(=O)O [CITRULLINE] | 135.4 Å² | 139.4 Å² | 137.7 Å² |  |
| COc1cc(/C=C/C(=O)O)ccc1O [FERULATE] | 139.8 Å² |  |  |  |
| O=C(O)c1ccc([O-])c(O)c1 [3,4-DIHYDROXYBENZOATE] | 122.5 Å² |  |  |  |
| C/C(=C/C(=O)O)C(=O)O [2-METHYLMALEATE] | 118.2 Å² |  |  |  |
| CC[C@H](C)[C@H](N)C(=O)O [ISOLEUCINE] | 129.3 Å² |  | 133 Å² |  |
| NC(=O)[C@@H](N)Cc1c[nH]c2ccccc12 [L-TRYPTOPHANAMIDE] | 143.3 Å² | 147.7 Å² | 150.5 Å² |  |
| C[C@H]1O[C@@H](n2cnc3c(N)ncnc32)[C@H](O)[C@@H]1O [5'-DEOXYADENOSINE] | 154.8 Å² | 167.2 Å² | 152.3 Å² and 158.4 Å² |  |
| O=c1cc[nH]c(=O)[nH]1 [URACIL] | 112.9 Å² |  |  |  |
| O=C(O)CCCCCC(=O)O [6-CARBOXYHEXANOATE] | 130.9 Å² | 140 Å² |  | collision cross section (N2) ([M+Na-2H]-): 134.4 Å² |
| Nc1nc(=O)c2[nH]cnc2[nH]1 [GUANINE] |  | 137.8 Å² |  | collision cross section (N2) ([M+K]+): 136 Å² |
| Nc1ccc(C(=O)[O-])cc1 [4-AMINOBENZOATE] |  |  | 126.9 Å² |  |
| O=C1CC[C@@H](C(=O)O)N1 [OXOPROLINE] | 124.1 Å² |  | 130.3 Å² |  |
| COC(=O)CCCN [METHYL 4-AMINOBUTYRATE] |  |  | 124.6 Å² |  |
| NC(N)=NCCC[C@H](N)C(=O)O [ARGININE] | 136.4 Å² | 148.6 Å² | 136.6 Å² |  |
| O=c1ccn([C@@H]2O[C@H](COP(=O)(O)OP(=O)(O)O)[C@@H](O)[C@H]2O)c(=O)[nH]1 [URIDINE 5'-DIPHOSPHATE] | 172.9 Å² | 178.5 Å² and 181.7 Å² | 176.9 Å² | collision cross section (N2) ([M+Na-2H]-): 178.6 Å² |
